Like-named read-outs stand apart in the source and are kept apart here.
Columns and labels:
PCP receptor = assay: Experiment of binding to PCP receptor: competitive binding with [3H] MK-801, rat cerebral cortex membrane preparation; conditions: for IC50: [3H] MK-801 2 nM, rat cerebral cortex membranes
Description: Experiment of Binding to PCP Receptor
MK-801 is reported to bind to PCP receptor and cause psychosis.
(§1) Male Slc: Wistar rats were used and after beheading of the rats, the brains were picked out and the cerebral cortex was fractionated. The cerebral cortex was homogenized with ice-cooled 5 mM Tris-HCl buffer (pH 7.8) in an amount 20 times as much and centrifuged at 4° C. and 27,500×g for 10 minutes. The obtained precipitate was suspended with the same buffer solution and again centrifuged. These steps were repeated three times and the obtained precipitate was suspended with the buffer solution and stored at −80° C. Immediately before the experiment, the stored suspension was thawed at room temperature and centrifuged at 4° C. and 27,500×g for 10 minutes and the obtained precipitate was suspended with the buffer solution. Further the resulting solution was diluted 2.5 times with the buffer solution and the obtained solution was used as a membrane preparation for the experiment.
For the binding experiment, 10 μL of test compounds with different concentrations and 10 μL of marked ligand [^3H] MK-801 were added to 480 μL of the above-mentioned membrane preparation sample and incubated at 25° C. for 60 minutes. The final concentration of [^3H] MK-801 was adjusted to be 2 nM. DMSO, which is a solvent, was used for measurement of the total binding quantity and 10 μM of (+)MK-801 was used for measurement of the non-specific binding quantity. After the incubation, the bonded bodies and the free bodies were separated by Whatman GF/C filter paper (manufactured by Whatman Inc.) and the filter paper was washed four times with 2.5 mL of the ice-cooled buffer solution. The filter paper was immersed in a liquid scintillation in a vial (Clear-Sol I, manufactured by Nacalai Tesque Co., Ltd.) and the radiation dose (dpm) was measured by a liquid scintillation counter. The binding inhibition ratio (%) was calculated from the measured values according to the following equation and the dose for inhibiting 50% binding (IC50) was calculated.
(§2) Binding inhibition ratio (%)=100−[(binding quantity in the presence of the test compound−non-specific binding quantity)/(total binding quantity−non-specific binding quantity)]×100

ICR type male mice = assay: Analgesic effect in mouse formalin test; type: in vivo; conditions: for ED50: Mus musculus, injected into the vein 5 minutes before 2% formalin
Description: Analgesic Effect in Mouse Formalin Test
The pain behavior attributed to formalin can be classified into two time-dependent phases and mice show pain behaviors, so-called licking and biting. In the first phase, acute pain was caused within 5 minutes immediately after formalin administration, and in the second phase, inflammatory pain was caused for 20 minutes from 10 to 30 minutes after the administration. ICR type male mice (5-week old) were used for the experiment. Formalin (2%) was subcutaneously injected to the right hind paw of the mice. The test compound (18) was dissolved in a solution, DMSO:HCO50:saline=1.5:1:7.5 and injected in difference concentrations into the vein 5 minutes before the formalin administration. The pain behavior time was measured for 30 minutes after formalin administration. The pain behavior time is to be shortened in the case the test compound causes analgesic effect. The measured time is substituted in the following equation to calculate the analgesic ratio (%) and the dose for 50% efficacy (ED50) was calculated. Analgesic ratio (%)=[…]

NR1/NR2B receptor [1] = biological target: T1, NR1/NR2B receptor (Rattus norvegicus, UniProt P35439+Q00960); assay: Experiment of binding to NMDA receptor: competitive binding with [3H]-Ifenprodil, rat cerebral cortex membrane preparation; conditions: [3H]-Ifenprodil 5 nM, GBR-12909 3 μM, rat cerebral cortex membranes
T1 construct: the obtained solution was used as a membrane preparation for the experiment; from tissue; host or cells: rat cerebral cortex membrane preparation
Description: Experiment of Binding to NMDA Receptor
Competitive binding assays of the test compounds (10, 18 and 19) were carried out using Ifenprodil, which is an antagonist specific for the NR1/NR2B subtype receptor, as a ligand.
as §1, with “were killed by beheading,” for “were used and after beheading of the rats,”, “ice-cooled 50” for “ice-cooled 5”, “(pH 7.4)” for “(pH 7.8)”, “times of the cerebral cortex” for “times as much”, “diluted 10” for “diluted 2.5”
For the binding experiment, 10 μL of test compounds with different concentrations, 10 μL of [^3H]-Ifenprodil, and 10 μL GBR-12909 were added to 470 μL of the above-mentioned membrane preparation and incubated at icing temperature for 120 minutes. The final concentration of [^3H]-Ifenprodil was adjusted to be 5 nM and the final concentration of GBR-12909 was adjusted to be 3 μM. DMSO, which is a solvent, was used for measurement of the total binding quantity and 100 μM of Ifenprodil was used for measurement of the non-specific binding quantity. In this connection, GBR-12909 was added to block the binding of [^3H]-Ifenprodil to the non-polyamine-sensitive site. After the incubation, the bounded bodies and the free bodies were separated by Whatman GF/C filter paper (Whatman Inc.) and the filter paper was washed four times with 2.5 mL of the ice-cooled buffer solution. The filter paper was immersed in a liquid scintillation (Clear-Sol I, Nacalai Tesque Co., Ltd.) in a vial and the radioactivity (dpm) was measured by a liquid scintillation counter. The binding inhibition ratio (%) was calculated from the measured values according to the following equation and the dose for inhibiting 50% binding (IC50) was calculated.
as §2

NR1/NR2B receptor [2] = biological target: NR1/NR2B receptor (Mus musculus, UniProt P35438+Q01097); assay: Electric physiological experiment: NMDA-induced inward current in Xenopus laevis oocytes expressing NMDA receptor subunits; type: cell-based
Description: (§3) Expression and Electric Physiological Experiment of NMDA Receptor
(§4) Messenger RNA (mRNA) was transcribed with complementary DNA (cDNA) of mouse NMDA receptor subunits and the mRNA was injected in oocytes of Xenopus Laevis. From two days after the injection, the inward current induced by NMDA was recorded by two electrode membrane potential fixation apparatus. The injection amount of the mRNA was 0.6/0.6 ng on the basis of NR1/NR2B per one oocyte to co-expression of the subunits. Solutions of the test compound (18) with different concentrations were added to the oocytes and the inward current induced by NMDA was recorded by two electrode membrane potential fixation apparatus. The extercellular solution was Mg^2+-free ND96 (NaCl 96 mM, KCl 2 mM, CaCl2 1.8 mM, and Hepes 5 mM and pH=7.5) and the potential was retained at −60 mV. The NMDA current was induced by using NMDA 100 μM and glycine 10 μM. The measured values of the recorded inward current induced by NMDA were substituted in the following equation to calculate the electric response % and the dose for inhibiting 50% (IC50) were calculated. The IC50 values for the respective NR1/NR2A, C, and D receptors were calculated. Electric response (%)=(inward current induced by NMDA in the presence of the test compound/inward current induced by NMDA in the absence of the test compound)×100

NR1/NR2A receptor = NR1/NR2A receptor (Mus musculus, UniProt P35436+P35438); assay: as above; type: cell-based; conditions: NMDA 100 μM and glycine 10 μM, -60 mV
Description: as §3, §4

NR1/NR2D receptor = NR1/NR2D receptor (Mus musculus, UniProt P35438+Q03391); assay: as above; type: cell-based; conditions: NMDA 100 μM and glycine 10 μM, -60 mV
Description: as §3, §4

NR1/NR2C receptor = NR1/NR2C receptor (Mus musculus, UniProt P35438+Q01098); assay: as above; type: cell-based; conditions: NMDA 100 μM and glycine 10 μM, -60 mV
Description: as §3, §4

T1 sequence (Q00960 27-1482, other chains not shown): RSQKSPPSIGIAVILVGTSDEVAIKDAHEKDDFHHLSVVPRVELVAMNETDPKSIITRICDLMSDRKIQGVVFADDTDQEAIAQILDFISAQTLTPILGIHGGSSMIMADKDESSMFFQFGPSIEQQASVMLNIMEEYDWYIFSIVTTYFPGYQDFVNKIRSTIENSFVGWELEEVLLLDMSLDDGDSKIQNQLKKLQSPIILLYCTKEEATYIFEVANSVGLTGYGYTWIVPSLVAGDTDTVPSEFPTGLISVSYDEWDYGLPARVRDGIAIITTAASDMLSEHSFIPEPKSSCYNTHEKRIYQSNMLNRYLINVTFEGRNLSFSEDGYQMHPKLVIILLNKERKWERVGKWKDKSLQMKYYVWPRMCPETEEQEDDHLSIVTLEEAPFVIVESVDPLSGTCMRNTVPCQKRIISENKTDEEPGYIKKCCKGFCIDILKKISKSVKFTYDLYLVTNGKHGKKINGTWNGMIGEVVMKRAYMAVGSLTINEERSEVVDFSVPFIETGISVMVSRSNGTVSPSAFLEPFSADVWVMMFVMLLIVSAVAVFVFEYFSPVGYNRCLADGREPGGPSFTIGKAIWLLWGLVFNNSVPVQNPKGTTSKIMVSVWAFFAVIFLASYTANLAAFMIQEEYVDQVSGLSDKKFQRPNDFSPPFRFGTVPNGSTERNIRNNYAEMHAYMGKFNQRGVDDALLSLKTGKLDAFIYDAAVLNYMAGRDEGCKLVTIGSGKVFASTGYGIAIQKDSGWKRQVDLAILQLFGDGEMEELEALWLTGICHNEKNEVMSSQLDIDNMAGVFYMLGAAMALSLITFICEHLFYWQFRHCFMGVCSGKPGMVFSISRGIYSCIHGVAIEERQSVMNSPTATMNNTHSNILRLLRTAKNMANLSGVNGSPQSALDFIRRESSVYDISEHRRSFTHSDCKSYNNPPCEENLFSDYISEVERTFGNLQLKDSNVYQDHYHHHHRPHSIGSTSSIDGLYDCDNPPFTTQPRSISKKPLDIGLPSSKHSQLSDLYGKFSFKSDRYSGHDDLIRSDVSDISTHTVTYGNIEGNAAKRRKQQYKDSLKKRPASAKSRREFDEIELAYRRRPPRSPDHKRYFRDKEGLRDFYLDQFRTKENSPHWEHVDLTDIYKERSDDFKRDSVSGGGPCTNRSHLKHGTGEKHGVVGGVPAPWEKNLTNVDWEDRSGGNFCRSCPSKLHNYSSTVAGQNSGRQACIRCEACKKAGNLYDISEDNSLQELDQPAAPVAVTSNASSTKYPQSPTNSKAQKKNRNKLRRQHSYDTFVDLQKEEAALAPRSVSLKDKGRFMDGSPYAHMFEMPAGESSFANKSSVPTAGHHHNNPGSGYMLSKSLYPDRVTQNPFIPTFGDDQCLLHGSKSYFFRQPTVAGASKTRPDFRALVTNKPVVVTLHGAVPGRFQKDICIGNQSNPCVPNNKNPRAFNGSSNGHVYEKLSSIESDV
NR1/NR2B receptor (Mus musculus, UniProt P35438+Q01097), sequence (Q01097 27-1482, other chains not shown): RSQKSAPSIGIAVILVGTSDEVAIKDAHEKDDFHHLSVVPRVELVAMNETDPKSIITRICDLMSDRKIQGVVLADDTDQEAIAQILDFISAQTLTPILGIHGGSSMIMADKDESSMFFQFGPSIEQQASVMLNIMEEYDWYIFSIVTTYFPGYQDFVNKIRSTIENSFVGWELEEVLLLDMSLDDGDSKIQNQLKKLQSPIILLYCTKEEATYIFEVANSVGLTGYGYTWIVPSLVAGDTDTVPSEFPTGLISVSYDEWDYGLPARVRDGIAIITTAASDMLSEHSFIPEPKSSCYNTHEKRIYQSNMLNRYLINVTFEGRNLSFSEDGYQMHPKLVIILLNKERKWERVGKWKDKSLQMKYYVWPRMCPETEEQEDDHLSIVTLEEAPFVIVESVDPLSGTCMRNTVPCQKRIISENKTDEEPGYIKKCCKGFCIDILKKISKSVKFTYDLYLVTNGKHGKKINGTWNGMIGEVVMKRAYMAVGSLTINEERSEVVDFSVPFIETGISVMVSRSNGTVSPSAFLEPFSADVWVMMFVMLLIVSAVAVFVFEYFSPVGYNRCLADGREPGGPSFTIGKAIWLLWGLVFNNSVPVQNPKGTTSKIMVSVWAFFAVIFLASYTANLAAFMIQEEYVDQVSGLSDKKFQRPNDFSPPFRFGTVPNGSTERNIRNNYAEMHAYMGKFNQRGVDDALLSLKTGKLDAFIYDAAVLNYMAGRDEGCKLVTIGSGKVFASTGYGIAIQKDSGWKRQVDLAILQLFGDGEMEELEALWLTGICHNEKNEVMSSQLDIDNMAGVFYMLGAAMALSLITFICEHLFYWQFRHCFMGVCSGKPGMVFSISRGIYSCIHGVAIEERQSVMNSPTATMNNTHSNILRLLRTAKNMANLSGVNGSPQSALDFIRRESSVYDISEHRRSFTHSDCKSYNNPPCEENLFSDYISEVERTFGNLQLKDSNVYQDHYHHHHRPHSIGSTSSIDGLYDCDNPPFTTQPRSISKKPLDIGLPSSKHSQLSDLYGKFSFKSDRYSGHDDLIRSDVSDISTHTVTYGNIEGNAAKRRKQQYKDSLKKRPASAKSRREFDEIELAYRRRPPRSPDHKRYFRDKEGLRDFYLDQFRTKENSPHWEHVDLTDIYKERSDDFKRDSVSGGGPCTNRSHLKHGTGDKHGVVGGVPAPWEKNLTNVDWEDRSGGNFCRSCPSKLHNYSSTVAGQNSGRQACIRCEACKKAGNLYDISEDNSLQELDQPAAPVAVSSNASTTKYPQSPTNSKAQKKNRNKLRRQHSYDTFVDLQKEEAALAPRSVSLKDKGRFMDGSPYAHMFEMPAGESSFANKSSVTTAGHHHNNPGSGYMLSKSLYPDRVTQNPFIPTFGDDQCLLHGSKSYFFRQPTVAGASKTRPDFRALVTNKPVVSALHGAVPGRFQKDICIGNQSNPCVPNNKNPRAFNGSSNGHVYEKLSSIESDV
NR1/NR2C receptor, sequence (Q01098 20-1239, other chains not shown): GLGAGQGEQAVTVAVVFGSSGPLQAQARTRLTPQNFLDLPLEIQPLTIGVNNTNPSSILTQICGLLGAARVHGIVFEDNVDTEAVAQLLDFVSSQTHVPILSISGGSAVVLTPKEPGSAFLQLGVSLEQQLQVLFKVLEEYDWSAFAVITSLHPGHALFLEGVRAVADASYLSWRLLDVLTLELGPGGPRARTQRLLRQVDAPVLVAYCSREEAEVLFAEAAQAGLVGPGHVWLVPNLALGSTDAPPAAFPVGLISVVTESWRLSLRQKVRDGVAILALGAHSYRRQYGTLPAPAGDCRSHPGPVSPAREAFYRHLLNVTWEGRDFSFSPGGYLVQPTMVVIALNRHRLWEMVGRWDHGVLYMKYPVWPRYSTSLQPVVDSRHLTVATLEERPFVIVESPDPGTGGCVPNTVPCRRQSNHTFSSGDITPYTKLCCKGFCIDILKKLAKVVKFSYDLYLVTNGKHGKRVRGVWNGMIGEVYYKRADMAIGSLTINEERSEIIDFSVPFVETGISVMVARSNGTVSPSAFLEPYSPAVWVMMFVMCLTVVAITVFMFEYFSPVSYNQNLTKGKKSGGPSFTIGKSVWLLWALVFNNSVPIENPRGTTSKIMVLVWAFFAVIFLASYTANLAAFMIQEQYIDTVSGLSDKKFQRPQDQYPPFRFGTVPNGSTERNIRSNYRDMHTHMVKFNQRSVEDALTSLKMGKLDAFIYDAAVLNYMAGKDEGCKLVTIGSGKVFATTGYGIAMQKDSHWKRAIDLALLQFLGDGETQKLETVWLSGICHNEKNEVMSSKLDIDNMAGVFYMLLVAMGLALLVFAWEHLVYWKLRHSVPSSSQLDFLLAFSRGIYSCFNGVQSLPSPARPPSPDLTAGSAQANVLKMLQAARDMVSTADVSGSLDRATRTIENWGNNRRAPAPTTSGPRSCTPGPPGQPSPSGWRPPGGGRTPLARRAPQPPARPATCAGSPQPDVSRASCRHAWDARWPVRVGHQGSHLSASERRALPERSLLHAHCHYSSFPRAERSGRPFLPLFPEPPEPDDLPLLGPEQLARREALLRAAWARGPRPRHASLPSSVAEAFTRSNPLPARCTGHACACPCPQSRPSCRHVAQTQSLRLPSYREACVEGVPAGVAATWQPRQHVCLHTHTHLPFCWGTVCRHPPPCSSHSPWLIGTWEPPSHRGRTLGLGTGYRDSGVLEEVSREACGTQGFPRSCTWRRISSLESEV

Row | Compound | IC50 (PCP receptor) [µM] | IC50 (NR1/NR2B receptor [1]) [µM] | competition with MK-801 at the PCP receptor (in words) (PCP receptor) | also measured
1 | CC(C(O)c1ccc(O)cc1)N1CCC(O)(c2ccccc2)CC1 (racemic) [CP-101606, reference compound] | 13 |  |  | 
2 | O=C(CCCN1CC=C(Cc2ccc(F)cc2)CC1)c1ccc(O)cc1 [Compound 19] | 10 | 0.002 | not competitive with MK-801 | 
3 | O=C(CCCN1CC=C(c2ccc(Cl)cc2)CC1)c1ccc(O)cc1 [Compound 32] |  | 0.003 |  | 

The next lines start with results.

Row | IC50 (PCP receptor) [µM] | IC50 (NR1/NR2B receptor [1]) [µM] | competition with MK-801 at the PCP receptor (in words) (PCP receptor) | Compound | also measured
4 | 3 | 0.004 | not competitive with MK-801 | Cc1ccccc1CC1=CCN(CCCC(=O)c2ccc(O)cc2)CC1 [Compound 18] | ED50 (ICR type male mice; acute pain within 5 minutes, read-out: ED50, the first phase): 1.1 mg/kg; ED50 (ICR type male mice; inflammatory pain 10 to 30 minutes, read-out: ED50, the second phase): 0.7 mg/kg; analgesic effect (in words) (ICR type male mice; mouse, in vivo): confirmed; antagonistic effect on NR1/NR2 subfamilies (in words) (NR1/NR2B receptor [2]): specific antagonistic effect on the NR1/NR2B receptor; IC50 (NR1/NR2B receptor [2]; NMDA 100 μM and glycine 10 μM, -60 mV, Xenopus oocytes): 4.6 µM; IC50 (NR1/NR2A receptor): > 30 µM; IC50 (NR1/NR2D receptor): > 30 µM; IC50 (NR1/NR2C receptor): > 30 µM
5 | 20 | 0.016 | not competitive with MK-801 | O=C(CCCN1CCC(O)(Cc2ccc(OC(F)(F)F)cc2)CC1)c1ccc(O)cc1 [Compound 10] | 
